By inhibition is commonly meant the percentage by which the read-out fell short of the control.

One series deals with Chlorella sp. ATCC 7516. The experiment in a line: Algal efficacy testing of dry paint films (modified ASTM 5589, 6-well plates). Type of series: cell-based. To be noted: 3 weeks; for Total conc: total biocide concentration in paint used as minimum inhibitory concentration for SI, pass level ≧75% inhibition. The procedure: Slurries containing 33% antimicrobial active ingredient (chlorotoluron) were post added to a white, acrylic/silicone based outdoor paint free of biocides to give a total active ingredient concentration of 10000 and 1000 ppm respectively. ROCIMA™ 250 (40% IPBC) was post added to a white, acrylic/silicone based outdoor paint free of biocides to give a total active ingredient concentration of 10000 and 1000 ppm respectively. These paints were then diluted with an antimicrobial free acrylic/silicone based paint and mixed to prepare targeted concentrations of antimicrobial compounds for the testing. The total biocides concentrations tested were 125, 250, 500, 1000, 2000 and 5000 ppm. After biocides addition or dilution, the paints were mixed 90 seconds with the horse power shaker (AXEL 75M3372/Agitateur SO-10MI) until uniformity was achieved. Paints containing different antimicrobial compounds at the same levels were mixed together in order to obtain the desired ratio of antimicrobial compounds. After one day, the paints were applied to Schleicher & Schuell filter paper at 280 μm wet film thickness and dried for 3 days at room temperature avoiding direct exposure to sunlight. Square discs (1.6 cm×1.6 cm) were cut out from each panel and were used as the substrate for algal efficacy tests. This sample size allowed for an agar border when the sample disc was placed into the well of the test plate.
Algal efficacy was tested according to modified ASTM 5589 which is a standard accelerated test method for determining resistance of various coatings (including paints) to algal defacement. To accommodate for high-throughput screening, this method was scaled down from petri dishes to 6-well plates. Bold Modified Basal Freshwater Nutrient Solution was used as growth medium. A single coated filter paper coupon was placed with a pair of sterile forceps at the center of the agar plug (on top) with the painted surface facing upwards. Algal inoculum was prepared by mixing equal concentrations (1×10^6 cfu/ml) and equal volumes of exponentially growing algae cultures.
Each well that contains a tested coupon was inoculated with 1750 μl of algal suspensions (1×10^6 cfu/ml) making sure that the whole surface (paint film as well as the agar surrounding it) was evenly covered. The plates were incubated at room temp (21° C.-25° C.) with cyclic exposure to light and dark phases, for a period of three weeks. The total area inhibited was evaluated at the end of each week according to percent area covered in 5% increments.
At the end of the three week incubation period, the samples were scored for percent inhibition regarding color intensity compared to the blank sample.
The Synergy Index calculation was performed as follows.
The SI is calculated based on F. C. Kull et. […]

The conditions of series [1]: cited from earlier work.

Consider `CCCCNC(=O)OCC#CI` [IPBC, 3-Iodo-2-propynyl butylcarbamate], for which, in the series on Chlorella sp. ATCC 7516, the Total conc turned out to be 2000 ppm. Further, the inhibition at 2000 ppm in the series with Chlorella sp. ATCC 7516 (504 h, total conc 2000 ppm in paint) turned out to be 70%.

As for `Cc1ccc(NC(=O)N(C)C)cc1Cl` [Chlorotoluron, N′-(3-chloro-4-methylphenyl)-N,N-dimethylurea], the Total conc with Chlorella sp. ATCC 7516 amounted to 1000 ppm. Moreover, the inhibition at 1000 ppm with Chlorella sp. ATCC 7516 (504 h, total conc 1000 ppm in paint) is 100%. The solubility in water result in series [1] is “relatively low”.

The values are drawn from US9326517B2, “Synergistic combination of a chlorotoluron compound and IPBC for dry film protection” (Dow Global Technologies LLC, priority 2013, dated 2016).
